11 molecules from patent US12448389B2, “BRM targeting compounds and associated methods of use” (Prelude Therapeutics Incorporated, priority 2020, dated 2025) can be followed below.

Usually DC50 stands for the concentration at which degradation of the target reaches its halfway point. As usually defined, the Dmax is the greatest extent of degradation seen.

One assay deals with T1, SMARCA4-HiBiT (Homo sapiens, UniProt P51532).
T1 construct: SMARCA4-HiBiT knock-in Hela monoclonal cell (CS3023226); host or cells: HeLa monoclonal knock-in line (CRISPR HiBiT knock-in at the endogenous locus, heterozygous)
T1 sequence (P51532 whole entry): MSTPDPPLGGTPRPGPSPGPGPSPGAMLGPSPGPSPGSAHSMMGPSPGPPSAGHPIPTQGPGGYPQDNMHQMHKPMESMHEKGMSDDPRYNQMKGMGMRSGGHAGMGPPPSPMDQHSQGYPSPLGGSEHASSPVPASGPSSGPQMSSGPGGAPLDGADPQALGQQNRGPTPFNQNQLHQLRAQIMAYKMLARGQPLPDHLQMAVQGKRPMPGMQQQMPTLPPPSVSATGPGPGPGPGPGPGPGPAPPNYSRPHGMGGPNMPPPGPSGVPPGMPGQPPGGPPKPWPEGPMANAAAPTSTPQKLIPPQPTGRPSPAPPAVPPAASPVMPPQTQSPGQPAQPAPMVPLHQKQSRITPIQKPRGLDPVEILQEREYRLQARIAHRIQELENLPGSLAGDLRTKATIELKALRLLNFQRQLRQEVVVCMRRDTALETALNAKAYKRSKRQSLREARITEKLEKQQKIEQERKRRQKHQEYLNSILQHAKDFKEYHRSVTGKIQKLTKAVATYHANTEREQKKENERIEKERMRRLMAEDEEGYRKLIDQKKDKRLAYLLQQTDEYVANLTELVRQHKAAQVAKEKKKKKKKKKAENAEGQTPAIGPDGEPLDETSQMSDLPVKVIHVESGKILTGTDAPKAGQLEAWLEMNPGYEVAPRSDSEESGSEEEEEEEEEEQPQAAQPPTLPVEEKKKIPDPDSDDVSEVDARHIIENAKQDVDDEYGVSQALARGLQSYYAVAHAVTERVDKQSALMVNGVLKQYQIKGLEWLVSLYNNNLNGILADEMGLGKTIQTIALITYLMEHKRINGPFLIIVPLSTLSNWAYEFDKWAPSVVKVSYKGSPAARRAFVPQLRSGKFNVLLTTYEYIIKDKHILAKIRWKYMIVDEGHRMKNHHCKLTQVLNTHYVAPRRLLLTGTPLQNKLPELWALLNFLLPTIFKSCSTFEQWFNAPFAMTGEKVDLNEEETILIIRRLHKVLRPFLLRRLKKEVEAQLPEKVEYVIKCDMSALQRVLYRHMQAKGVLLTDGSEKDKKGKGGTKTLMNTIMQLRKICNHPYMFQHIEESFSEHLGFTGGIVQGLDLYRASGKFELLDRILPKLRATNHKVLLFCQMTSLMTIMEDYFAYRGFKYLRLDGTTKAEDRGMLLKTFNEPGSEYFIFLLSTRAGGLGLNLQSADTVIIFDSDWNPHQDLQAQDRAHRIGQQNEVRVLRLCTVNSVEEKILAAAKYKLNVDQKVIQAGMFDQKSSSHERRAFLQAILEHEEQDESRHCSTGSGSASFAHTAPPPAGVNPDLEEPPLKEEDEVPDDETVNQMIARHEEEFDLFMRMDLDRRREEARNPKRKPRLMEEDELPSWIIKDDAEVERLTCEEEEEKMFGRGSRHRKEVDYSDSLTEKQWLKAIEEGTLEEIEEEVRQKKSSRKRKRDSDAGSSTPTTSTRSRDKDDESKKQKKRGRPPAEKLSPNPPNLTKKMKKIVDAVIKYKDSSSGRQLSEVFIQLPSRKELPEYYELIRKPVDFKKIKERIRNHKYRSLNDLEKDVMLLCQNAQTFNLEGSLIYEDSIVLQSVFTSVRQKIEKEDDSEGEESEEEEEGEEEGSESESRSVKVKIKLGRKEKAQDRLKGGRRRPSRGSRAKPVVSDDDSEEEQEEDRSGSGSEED
In words: SMARCA4 HiBiT degradation assay in HeLa cells. The settings on record: 18 hours incubation; for DC50: read-out: HeLa-HiBit-SM4 DC50; for Dmax: HeLa, read-out: HeLa-HiBit-SM4 Dmax (%). Format: cell-based. Here is the method:
(§1) HiBiT peptide knock-in of SMARCA2 in LgBiT expressing HEK293T cells was performed by CRISPR-mediated tagging system as described Promega. The homozygous HiBiT knock-in on c-terminus SMARCA2 was confirmed by sanger sequence. SMARCA2-HiBiT knock-in Hela monoclonal cell (CS302366) and SMARCA4-HiBiT knock-in Hela monoclonal cell (CS3023226) were purchased from Promega. The heterozygous HiBiT-knock-in was confirmed by sanger sequence in both SMARCA2-HiBiT and SMARCA4-HiBiT monoclonal cells.
(§2) SMARCA2 HiBiT and SMARCA4 HiBiT Degradation Assay in HeLa Cells
(§3) Dispense 10 ul aliquot of prepared Hela-SMARCA2-HiBiT or Hela-SMARCA4-HiBiT cells (1:1 ratio of cells:Trypan Blue (#1450013, Bio-Rad)) onto cell counting slide (#145-0011, Bio-Rad) and obtain cell density and cell viability using cell counter (TC20, Bio-Rad). Remove appropriate volume of resuspended cells from culture flask to accommodate 2500 cells/well @20 μL/well. Transfer Hela-HiBiT cells to 50 mL conical (#430290, Corning). Spin down at 1000 rpm for 5 min using tabletop centrifuge (SPINCHRON 15, Beckman). Discard supernatant and resuspend cell pellet in modified EMEM (#30-2003, ATCC) cell culture media containing 10% FBS (F2422-500ML, Sigma), and 1×Penicillin/Streptomycin (200 g/L) (30-002-CI, Corning) to a cell density of 125,000 cells/mL. Dispense 20 μL of resuspended Hela-HiBit cells per well in 384-well TC treated plate (#12-565-343, Thermo Scientific) using standard cassette (#50950372, Thermo Scientific) on Multidrop Combi (#5840310, Thermo Scientific) inside laminar flow cabinet. Dispense test compounds onto plates using digital liquid dispenser (D300E, Tecan). Incubate plates in humidified tissue culture incubator @37° C. for 18 hours. Add 20 μL of prepared Nano-Glo® HiBiT Lytic detection buffer (N3050, Promega) to each well of 384-well plate using small tube cassette (#24073295, Thermo Scientific) on Multidrop Combi, incubate @RT for 30-60 min. Read plates on microplate reader (Envision 2105, PerkinElmer) using 384 well Ultra-Sensitive luminescence mode. Raw data files and compound information reports are swept into centralized data lake and deconvoluted using automated scripts designed by TetraScience, Inc. Data analysis, curve-fitting and reporting done in Dotmatics Informatics Suite using Screening Ultra module.
On the technique in general: HiBiT is a short tag that completes a luciferase, so light tracks the accessible tagged protein.

The target of the next assay is T2, SMARCA2-HiBiT (Homo sapiens, UniProt P51531).
T2 construct: SMARCA2-HiBiT knock-in Hela monoclonal cell (CS302366); host or cells: HeLa monoclonal knock-in line (CRISPR HiBiT knock-in at the endogenous locus, heterozygous)
T2 sequence (P51531 whole entry): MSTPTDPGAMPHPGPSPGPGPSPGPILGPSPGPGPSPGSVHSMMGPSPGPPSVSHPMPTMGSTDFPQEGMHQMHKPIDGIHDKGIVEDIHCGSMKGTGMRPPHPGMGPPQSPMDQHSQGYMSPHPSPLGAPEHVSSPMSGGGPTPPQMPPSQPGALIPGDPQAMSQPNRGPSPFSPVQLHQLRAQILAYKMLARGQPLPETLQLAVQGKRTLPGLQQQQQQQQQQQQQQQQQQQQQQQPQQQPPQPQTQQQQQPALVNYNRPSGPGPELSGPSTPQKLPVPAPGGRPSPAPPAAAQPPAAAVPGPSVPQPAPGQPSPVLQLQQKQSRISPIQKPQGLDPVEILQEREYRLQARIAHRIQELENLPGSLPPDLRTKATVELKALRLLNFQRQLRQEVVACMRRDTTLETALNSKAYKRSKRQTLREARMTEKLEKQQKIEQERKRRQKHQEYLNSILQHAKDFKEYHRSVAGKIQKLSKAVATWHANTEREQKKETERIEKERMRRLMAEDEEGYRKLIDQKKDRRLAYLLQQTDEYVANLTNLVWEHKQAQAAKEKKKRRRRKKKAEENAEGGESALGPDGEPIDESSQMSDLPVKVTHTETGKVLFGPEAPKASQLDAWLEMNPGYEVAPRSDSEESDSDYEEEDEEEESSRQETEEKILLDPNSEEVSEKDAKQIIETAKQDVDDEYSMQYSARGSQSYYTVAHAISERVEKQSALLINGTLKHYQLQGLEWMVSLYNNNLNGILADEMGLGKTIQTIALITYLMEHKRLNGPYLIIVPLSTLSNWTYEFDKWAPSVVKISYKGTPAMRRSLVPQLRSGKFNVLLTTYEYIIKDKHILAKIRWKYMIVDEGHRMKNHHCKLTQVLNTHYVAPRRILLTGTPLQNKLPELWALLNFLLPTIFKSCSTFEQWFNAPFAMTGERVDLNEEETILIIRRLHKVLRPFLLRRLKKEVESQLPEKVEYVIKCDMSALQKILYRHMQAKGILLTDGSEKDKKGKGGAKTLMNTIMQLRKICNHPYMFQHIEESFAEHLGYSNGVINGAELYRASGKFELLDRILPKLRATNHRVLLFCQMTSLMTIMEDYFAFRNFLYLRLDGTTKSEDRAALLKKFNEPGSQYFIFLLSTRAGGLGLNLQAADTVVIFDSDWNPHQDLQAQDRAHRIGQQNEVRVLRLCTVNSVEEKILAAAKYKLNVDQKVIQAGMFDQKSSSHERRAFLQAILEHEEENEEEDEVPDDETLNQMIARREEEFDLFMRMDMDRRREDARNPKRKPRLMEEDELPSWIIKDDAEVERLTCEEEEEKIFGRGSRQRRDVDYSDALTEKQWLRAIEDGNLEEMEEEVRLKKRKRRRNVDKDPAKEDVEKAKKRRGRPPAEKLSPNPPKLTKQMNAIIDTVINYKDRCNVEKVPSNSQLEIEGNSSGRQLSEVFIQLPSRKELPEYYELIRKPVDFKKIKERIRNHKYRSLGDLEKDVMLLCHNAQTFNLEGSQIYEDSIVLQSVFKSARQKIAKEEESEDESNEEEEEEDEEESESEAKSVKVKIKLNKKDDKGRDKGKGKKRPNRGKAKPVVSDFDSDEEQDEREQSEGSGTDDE
In words: SMARCA2 HiBiT degradation assay in HeLa cells. Format: cell-based. The settings on record: 18 hours incubation; for DC50: read-out: HeLa_HiBit-SM2 DC50; for Dmax: HeLa, read-out: HeLa-HiBit-SM2 Dmax (%). As to the method:
as §1, §2, §3

Turning to `O=C1CCC(N2Cc3ccc(N4CCC(CN5Cc6cnc(N7CCN8c9cc(-c%10ccccc%10O)nnc9NC[C@H]8C7)nc6C5)CC4)cc3C2=O)C(=O)N1` (stereo partly drawn) [Example 61, 3-(6-(4-((2-((S)-2-(2-hydroxyphenyl)-5,6,6a,7,9,10-hexahydro-8H-pyrazino[1′,2′:4,5]pyrazino[2,3-c]pyridazin-8-yl)-5,7-dihydro-6H-pyrrolo[3,4-d]pyrimidin-6-yl)methyl)piperidin-1-yl)-1-oxoisoindolin-2-yl)piperidine-2,6-dione], at SMARCA4-HiBiT, the half-maximal degradation concentration (DC50) is below 10 nM and the Dmax is at most 50%. In addition, on SMARCA2-HiBiT, the 50% degradation concentration (DC50) was below 10 nM and the Dmax was at most 50%.
For `CN(C(=O)N1CCN2c3cc(-c4ccccc4O)nnc3NC[C@H]2C1)C1CCN(CC2CCN(c3ccc4c(c3)C(=O)N(C3CCC(=O)NC3=O)C4=O)CC2)CC1` (stereo partly drawn) [Example 138, (6aS)-N-(1-((1-(2-(2,6-dioxopiperidin-3-yl)-1,3-dioxoisoindolin-5-yl)piperidin-4-yl)methyl)piperidin-4-yl)-2-(2-hydroxyphenyl)-N-methyl-5,6,6a,7,9,10-hexahydro-8H-pyrazino[1′,2′:4,5]pyrazino[2,3-c]pyridazine-8-carboxamide], on SMARCA4-HiBiT, the half-maximal degradation concentration (DC50) is below 10 nM and the Dmax is above 85%. For the same molecule, at SMARCA2-HiBiT, the 50% degradation concentration (DC50) was below 10 nM and the Dmax was above 85%.
As to `O=C1CCC(N2C(=O)c3ccc(N4CCC(CN[C@H]5C[C@@H](CN6CCN7c8cc(-c9ccccc9O)nnc8NC[C@H]7C6)C5)CC4)cc3C2=O)C(=O)N1` (stereo partly drawn) [Example 78, 2-(2,6-dioxopiperidin-3-yl)-5-(4-((((1R,3s)-3-(((S)-2-(2-hydroxyphenyl)-5,6,6a,7,9,10-hexahydro-8H-pyrazino[1′,2′:4,5]pyrazino[2,3-c]pyridazin-8-yl)methyl)cyclobutyl)amino)methyl)piperidin-1-yl)isoindolme-1,3-dione], on SMARCA4-HiBiT, the DC50 was below 10 nM and the maximal degradation (Dmax) was above 85%. Further, on SMARCA2-HiBiT, the half-maximal degradation concentration (DC50) was below 10 nM and the greatest degradation seen (Dmax) is above 85%.
As for `O=C1CCC(N2C(=O)c3ccc(Nc4ccc(N5CCC(N6CCN7c8cc(-c9ccccc9O)nnc8NC[C@H]7C6)CC5)cc4)cc3C2=O)C(=O)N1` (stereo partly drawn) [Example 240, 2-(2,6-dioxopiperidin-3-yl)-5-((4-(4-((S)-2-(2-hydroxyphenyl)-5,6,6a,7,9,10-hexahydro-8H-pyrazino[1′,2′:4,5]pyrazino[2,3-c]pyridazin-8-yl)piperidin-1-yl)phenyl)amino) isoindoline-1,3-dione], on SMARCA4-HiBiT, the 50% degradation concentration (DC50) was below 10 nM and the Dmax lay in the range of 75 to 85%. In addition, on SMARCA2-HiBiT, the 50% degradation concentration (DC50) is below 10 nM and the maximal degradation (Dmax) fell in the range of 75 to 85%.
For the molecule `O=C1CCC(N2C(=O)c3ccc(N4CC5(CC(CN6CCC(CN7CCN8c9cc(-c%10ccccc%10O)nnc9NC[C@H]8C7)CC6)C5)C4)cc3C2=O)C(=O)N1` (stereo partly drawn) [Example 147, 2-(2,6-dioxopiperidin-3-yl)-5-(6-((4-(((S)-2-(2-hydroxyphenyl)-5,6,6a,7,9,10-hexahydro-8H-pyrazino[1′,2′:4,5]pyrazino[2,3-c]pyridazin-8-yl)methyl)piperidin-1-yl)methyl)-2-azaspiro[3.3]heptan-2-yl)isoindoline-1,3-dione], the DC50 at SMARCA4-HiBiT and on SMARCA2-HiBiT was below 10 nM each time. In addition, the Dmax at SMARCA4-HiBiT and at SMARCA2-HiBiT was above 85% throughout.
As to `C[C@H]1CN2c3cc(-c4ccccc4O)nnc3NC[C@H]2CN1C[C@H]1[C@@H]2CN(CC3CCN(c4ccc5c(c4)C(=O)N(C4CCC(=O)NC4=O)C5)CC3)C[C@@H]21` (stereo partly drawn) [Example 54, 3-(6-(4-(((1R,5S,6r)-6-(((6aS,9S)-2-(2-hydroxyphenyl)-9-methyl-5,6,6a,7,9,10-hexahydro-8H-pyrazino[1′,2′:4,5]pyrazino[2,3-c]pyridazin-8-yl)methyl)-3-azabicyclo[3.1.0]hexan-3-yl)methyl)piperidin-1-yl)-1-oxoisoindolin-2-yl)piperidine-2,6-dione], the 50% degradation concentration (DC50) is 10 to 100 nM at SMARCA4-HiBiT and below 10 nM at SMARCA2-HiBiT. Also, the maximal degradation (Dmax) at SMARCA4-HiBiT lay within 50 to 75%; at SMARCA2-HiBiT it was 75 to 85%.
As for `CC(C1CCN(c2ccc3c(c2)C(=O)N(C2CCC(=O)NC2=O)C3=O)CC1)N1CCC(CN2CCN3c4cc(-c5ccccc5O)nnc4NCC3C2)CC1` (stereo in doubt) [Example 160, 2-(2,6-dioxopiperidin-3-yl)-5-[4-[1-[4-[[(10S)-4-(2-hydroxyphenyl)-1,5,6,8,12-pentazatricyclo[8.4.0.02,7]tetradeca-2(7),3,5-trien-12-yl]methyl]piperidin-1-yl]ethyl]piperidin-1-yl]isoindole-1,3-dione], at SMARCA4-HiBiT, the DC50 is below 10 nM and the greatest degradation seen (Dmax) is 50 to 75%. Besides, at SMARCA2-HiBiT, the DC50 is below 10 nM and the Dmax fell in the range of 75 to 85%.
In the case of `N#CC1(CN2CCC(CN3CCN4c5cc(-c6ccccc6O)nnc5NC[C@H]4C3)CC2)CCN(c2ccc3c(c2)C(=O)N(C2CCC(=O)NC2=O)C3=O)CC1` (stereo partly drawn) [Example 179, 1-[2-(2,6-dioxopiperidin-3-yl)-1,3-dioxoisoindol-5-y]-4-[[4-[[(10S)-4-(2-hydroxyphenyl)-1,5,6,8,12-pentazatricyclo[8.4.0.02,7]tetradeca-2,4,6-trien-12-yl]methyl]piperidin-1-yl]methyl]piperidine-4-carbonitrile], at SMARCA4-HiBiT, the DC50 is below 10 nM and the Dmax was in the range of 50 to 75%. On SMARCA2-HiBiT, the DC50 was below 10 nM and the maximal degradation (Dmax) was 50 to 75%.
Turning to `O=C1CCC(N2C(=O)c3ccc(NCCN4CCC(N5CCN6c7cc(-c8cc(F)ccc8O)nnc7NC[C@H]6C5)CC4)cc3C2=O)C(=O)N1` (stereo partly drawn) [Example 242, 2-(2,6-dioxopiperidin-3-yl)-5-((2-(4-((S)-2-(5-fluoro-2-hydroxyphenyl)-5,6,6a,7,9,10-hexahydro-8H-pyrazino[1′,2′:4,5]pyrazino[2,3-c]pyridazin-8-yl)piperidin-1-yl)ethyl)amino)isoindoline-1,3-dione], on SMARCA4-HiBiT, the DC50 is below 10 nM and the Dmax was above 85%. On SMARCA2-HiBiT, the half-maximal degradation concentration (DC50) is below 10 nM and the Dmax was above 85%.
As for `O=C1CCC(N2C(=O)c3ccc(N4CC[C@H](CN5C[C@@H]6[C@H](C5)[C@H]6CN5CCN6c7cc(-c8cc(F)ccc8O)nnc7NC[C@H]6C5)[C@@H](F)C4)cc3C2=O)C(=O)N1` (stereo partly drawn) [Example 278, 2-(2,6-dioxopiperidin-3-yl)-5-((3R,4R)-3-fluoro-4-(((1R,5S,6R)-6-(((S)-2-(5-fluoro-2-hydroxyphenyl)-5,6,6a,7,9,10-hexahydro-8H-pyrazino[1′,2′:4,5]pyrazino[2,3-c]pyridazin-8-yl)methyl)-3-azabicyclo[3.1.0]hexan-3-yl)methyl)piperidin-1-yl) isoindoline-1,3-dione], at SMARCA4-HiBiT, the “HeLa-HiBit-SM4 Dmax (%)” value is recorded as “A (A=Dmax>85%)” and the DC50 is below 10 nM. At SMARCA2-HiBiT, the “HeLa-HiBit-SM2 Dmax (%)” value is “A (A=Dmax>85%)” and the half-maximal degradation concentration (DC50) was below 10 nM.
With `O=C1CCC(N2C(=O)c3ccc(N4CCC(O)(CN5CCC(CN6CCN7c8cc(-c9ccccc9O)nnc8NC[C@H]7C6)CC5)CC4)cc3C2=O)C(=O)N1` (stereo partly drawn) [Example 50, 2-(2,6-dioxopiperidin-3-yl)-5-(4-hydroxy-4-((4-(((S)-2-(2-hydroxyphenyl)-5,6,6a,7,9,10-hexahydro-8H-pyrazino[1′,2′:4,5]pyrazino[2,3-c]pyridazin-8-yl)methyl)piperidin-1-yl)methyl)piperidin-1-yl)isoindoline-1,3-dione], on SMARCA4-HiBiT, the half-maximal degradation concentration (DC50) is below 10 nM and the maximal degradation (Dmax) lay within 75 to 85%. Also, at SMARCA2-HiBiT, the DC50 is below 10 nM and the greatest degradation seen (Dmax) was above 85%.
